The source of these data is ChEMBL document CHEMBL1148019, “Heterocyclic substituted cantharidin and norcantharidin analogues--synthesis, protein phosphatase (1 and 2A) inhibition, and anti-cancer activity” (Bioorg Med Chem Lett, 2007).

The nature of assay [1]: Cytotoxicity against human SJ-G2 cells at 100 uM. It counts as functional.
Assay [2] can be described thus: Inhibition of Protein phosphatase 2A. Also on record: species or system Homo sapiens.
The test system of assay [3] is NCI-H460. In words: Cytotoxicity against human H460 cells at 100 uM. The assay is classed as functional.
Assay [4] deals with DU-145. As to the kind of experiment: Cytotoxicity against human DU145 cells at 100 uM. The assay is classed as functional.
Assay [5] has as its system HT-29. As to the kind of experiment: Cytotoxicity against human HT29 cells at 100 uM. The assay is classed as functional.
For assay [6], the system named is SW480. In words: Cytotoxicity against human SW480 cells at 100 uM. It counts as functional.
The test system of assay [7] is A-431. In words: Cytotoxicity against human A431 cells at 100 uM. It counts as functional.
The nature of assay [8]: Cytotoxicity against human BE2-C cells at 100 uM. Conditions: BE(2)-C. The assay is classed as functional.
For assay [9], the system named is A2780. In words: Cytotoxicity against human A2780 cells at 100 uM. It counts as functional.
A short description of assay [10]: Inhibition of Protein phosphatase 1. The arrangement: species or system Homo sapiens.
Assay [11] deals with MCF7. As to the kind of experiment: Cytotoxicity against human MCF7 cells at 100 uM. The assay is classed as functional.
The subject of assay [12] is DU-145. In words: Cytotoxicity against human DU145 cells. It counts as functional.
The test system of assay [13] is NCI-H460. In words: Cytotoxicity against human H460 cells. It counts as functional.
The test system of assay [14] is SW480. In words: Cytotoxicity against human SW480 cells. The assay is classed as functional.
A short description of assay [15]: Cytotoxicity against human BE2-C cells. Conditions: BE(2)-C. The assay is classed as functional.
The subject of assay [16] is A2780. In words: Cytotoxicity against human A2780 cells. The assay is classed as functional.
Assay [17] has as its system A-431. As to the kind of experiment: Cytotoxicity against human A431 cells. The assay is classed as functional.
Assay [18] has as its system HT-29. As to the kind of experiment: Cytotoxicity against human HT29 cells. It counts as functional.
The nature of assay [19]: Cytotoxicity against human SJ-G2 cells. The assay is classed as functional.
Assay [20] has as its system MCF7. In words: Cytotoxicity against human MCF7 cells. The assay is classed as functional.
Assay [21] is filed under the species Homo sapiens. In words: Inhibition of Protein phosphatase 2A at 100 uM.
Assay [22] is filed under the species Homo sapiens. In words: Inhibition of Protein phosphatase 1 at 100 uM.

By inhibition is commonly meant the change of the read-out against control, counted positive when it falls. A low value points to a weak effect. In general, IC50 refers to the midpoint of a concentration-inhibition curve. High values mean lower potency, low ones higher potency. With `O=C(NCCN1CCOCC1)NC(=O)C1C(C(=O)O)[C@@H]2CC[C@H]1O2` (stereo partly specified), the inhibition at 100 µM was 19% in assay [1]; 10% in the assay on NCI-H460 [3]; 17% with DU-145 [4]; 37% in the assay on HT-29 [5]; 14% in the assay with SW480 [6]; 23% in the assay on A-431 [7]. The inhibition at 100 µM in [8] came out at 26%; in the assay on A2780 [9], 14%; in the assay with MCF7 [11], 7.5%. Besides, the 50% inhibitory concentration (IC50) worked out at 43 µM in assay [2] and 31 µM in [10].
For orientation: GI50 means the concentration giving 50% growth inhibition. A higher GI50 goes with lower sensitivity of the cells. Regarding `C[C@@]12C(=O)OC(=O)[C@]1(C)[C@H]1CC[C@@H]2O1` [CANTHARIDIN], the GI50 with DU-145 [12] is 2.4 µM; in the assay with NCI-H460 [13], 4 µM; in the assay on SW480 [14], 4.6 µM; in [15], 4.9 µM; in the assay on A2780 [16], 5.8 µM; in the assay on A-431 [17] it was 3.4 µM. Moreover, the GI50 in the assay on HT-29 [18] is 3.3 µM; in assay [19], 3 µM; in the assay with MCF7 [20] it was 7 µM. Besides, the half-inhibitory concentration (IC50) in assay [2] came to 1.2 µM; in assay [10], 11 µM.
Take `C[C@]1(C(=O)O)[C@@H]2CC[C@@H](O2)[C@@]1(C)C(=O)NC(=O)N1CCOCC1`: the GI50 worked out at 1.7 µM in the assay on DU-145 [12]; 3.3 µM with NCI-H460 [13]; 3.9 µM in the assay with SW480 [14]; 2.5 µM in assay [15]; 4.9 µM in the assay with A2780 [16]; 2.9 µM with A-431 [17]. Further, the GI50 in the assay on HT-29 [18] turned out to be 2.8 µM; in [19], 2.1 µM; in the assay on MCF7 [20], 5.8 µM. Besides, the IC50 was determined as 0.79 µM in assay [2] and 5.9 µM in assay [10].
Regarding `O=C1OC(=O)[C@H]2[C@@H]1[C@@H]1CC[C@H]2O1`, the GI50 was determined as 3 µM in the assay on DU-145 [12]; 45 µM in the assay on NCI-H460 [13]; 35 µM with SW480 [14]; 56 µM in assay [15]; 59 µM with A2780 [16]; 33 µM in the assay on A-431 [17]. In addition, the results for the GI50 (in the assay with HT-29 [18]; in assay [19]; in the assay on MCF7 [20]) were 48 µM, 35 µM and 64 µM, respectively. In addition, the IC50 in [2] turned out to be 3 µM; in assay [10] it was 9 µM.
For `O=C(NC(=O)Nc1ccc(N2CCOCC2)cc1)NC(=O)C1C(C(=O)O)[C@@H]2CC[C@H]1O2` (stereo partly specified), the inhibition at 100 µM in [1] amounted to 21%; in the assay with NCI-H460 [3], 19%; with DU-145 [4], 17%; with HT-29 [5], 23%; in the assay on SW480 [6] it was 29%; in the assay on A-431 [7], 21%. Also, the values for the inhibition at 100 µM (in [8]; with A2780 [9]; with MCF7 [11]) were 13%, 18% and 20%, respectively. Besides, the 50% inhibitory concentration (IC50) in assay [2] was 7.9 µM; in [10], 6.5 µM.
For the compound `O=C(NCCc1cnc[nH]1)NC(=O)C1C(C(=O)O)[C@@H]2CC[C@H]1O2` (stereo partly specified), the inhibition at 100 µM in assay [1] amounted to 27%; in the assay on NCI-H460 [3] it was 25%; in the assay with DU-145 [4], 14%; with HT-29 [5], 21%; in the assay with SW480 [6], 33%; with A-431 [7], 32%. In addition, the inhibition at 100 µM turned out to be 23% in [8], 20% in the assay on A2780 [9] and 17% with MCF7 [11]. Further, the inhibition turned out to be 56% in the assay listed under Homo sapiens [21] and 35% in the assay filed under Homo sapiens [22].
